Measurements published in US20080039437A1, “New Pyridine Analogues III” (ASTRAZENECA AB, priority 2006, published 2008).

Molecular target: T1, P2Y12 receptor (Homo sapiens, UniProt Q9H244)
T1 construct: expressed in transfected cells; host or cells: CHO cells (membranes)
Test: Functional inhibition of 2-Me-S-ADP induced P2Y12 signalling (35S-GTPγS, cell membranes)
Assay type: biochemical
Details: membranes from P2Y12 transfected CHO-cells, EC80 of agonist 2-methyl-thio-adenosine diphosphate, 30° C., 45 min
Procedure: Functional inhibition of the P2Y12 receptor can be measured by in vitro assays using cell membranes from P2Y12 transfected CHO-cells, the methodology is indicated below.
Functional inhibition of 2-Me-S-ADP induced P2Y12 signalling: 5 μg of membranes were diluted in 200 μl of 200 mM NaCl, 1 mM MgCl2, 50 mM HEPES (pH 7.4), 0.01% BSA, 30 μg/ml saponin and 10 μM GDP. To this was added an EC80 concentration of agonist (2-methyl-thio-adenosine diphosphate), the required concentration of test compound and 0.1 μCi ^35S-GTPγS. The reaction was allowed to proceed at 30° C. for 45 min. Samples were then transferred on to GF/B filters using a cell harvester and washed with wash buffer (50 mM Tris (pH 7.4), 5 mM MgCl2, 50 mM NaCl). Filters were then covered with scintillant and counted for the amount of ^35S-GTPγS retained by the filter. Maximum activity was that determined in the presence of the agonist and minimum activity in the absence of the agonist following subtraction of the value determined for non-specific activity. The effect of compounds at various concentrations was plotted according to the equation y=A+((B−A)/(1+((C/x)ˆD))) and IC50 estimated where
A is the bottom plateau of the curve i.e. the final minimum y value
B is the top of the plateau of the curve i.e. the final maximum y value
C is the x value at the middle of the curve. This represents the log EC50 value when A+B=100 […]

T1 sequence (Q9H244 whole entry): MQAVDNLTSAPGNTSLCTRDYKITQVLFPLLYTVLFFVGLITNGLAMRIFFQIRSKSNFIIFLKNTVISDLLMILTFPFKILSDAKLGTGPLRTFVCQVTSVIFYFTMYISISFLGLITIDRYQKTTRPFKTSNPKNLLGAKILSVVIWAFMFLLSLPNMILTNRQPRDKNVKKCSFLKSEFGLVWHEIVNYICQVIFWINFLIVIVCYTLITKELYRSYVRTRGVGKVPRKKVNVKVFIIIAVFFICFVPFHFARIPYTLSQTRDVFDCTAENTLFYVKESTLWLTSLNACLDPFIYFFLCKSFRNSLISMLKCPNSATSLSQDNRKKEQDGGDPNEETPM

Row | Compound | IC50
1 | CCOC(=O)c1cc(C#N)c(N2CC(C(=O)NS(=O)(=O)CC3CCC(C)CC3)C2)nc1CF (centres unmarked) [Example 74, Ethyl 5-cyano-2-(fluoromethyl)-6-{3-[({[(4-methylcyclohexyl)methyl]sulfonyl}amino)carbonyl]azetidin-1-yl}nicotinate] | 270 nM
2 | CCCCS(=O)(=O)NC(=O)C1CCN(c2nc(C(F)F)c(C(=O)OCC)cc2C#N)CC1 [Example 41, Ethyl 6-(4-{[(butylsulfonyl)amino]carbonyl}piperidin-1-yl)-5-cyano-2-(difluoromethyl)nicotinate] | 490 nM
